Tested on: BdATVR parasites
Assay type: cell-based, Babesia duncani
Conditions: IC50 BdATVR versus WA1

## O=C1C(O)=C([C@H]2CC[C@H](c3ccc(Cl)cc3)CC2)C(=O)c2ccccc21 [Atovaquone]
  fold resistance of BdATVR compared with WA1: 15.2 fold
